In assay [1] the test system is A2780. Put plainly: Potentiation of cisplatin-induced cytotoxicity against human A2780 cells after 24 hrs in presence of cisplatin by Ez-Cytox reagent based assay. It is filed as functional, cell-based.
Assay [2] concerns LLC-PK1. The experiment in a line: Renoprotective activity in pig LLC-PK1 cells assessed as inhibition of cisplatin-induced damage by measuring increase in cell viability preincubated for 2 hrs followed by cisplatin addition after 24 hrs by Ez-Cytox reagent based assay. Particulars: Sus scrofa. In kind it is functional.
Assay [3] relates to LLC-PK1. The experiment in a line: Renoprotective activity in pig LLC-PK1 cells assessed as inhibition of cisplatin-induced damage by measuring increase in cell viability at 10 to 100 uM preincubated for 2 hrs followed by cisplatin addition after 24 hrs by Ez-Cytox reagent based assay. In kind it is functional. As to conditions: Sus scrofa.
Assay [4] deals with LLC-PK1. Put plainly: Renoprotective activity in pig LLC-PK1 cells assessed as inhibition of cisplatin-induced damage by measuring cell viability at 50 to 100 uM preincubated for 2 hrs followed by cisplatin addition after 24 hrs by Ez-Cytox reagent based assay (reference value: 60%). It is filed as functional, Sus scrofa.
For assay [5], the species on record is Sus scrofa. The experiment in a line: Inhibition of cisplatin-induced increase in phosphorylated p38 MAPK levels in pig LLC-PK1 cells at 50 to 100 uM pretreated for 2 hrs followed by cisplatin addition after 24 hrs by radioimmunoprecipitation assay. In kind it is cell-based.
Assay [6] relates to LLC-PK1. Put plainly: Renoprotective activity in pig LLC-PK1 cells assessed as inhibition of cisplatin-induced increase in caspase-3 cleavage at 50 to 100 uM preincubated for 2 hrs followed by cisplatin addition after 24 hrs by radioimmunoprecipitation assay. In kind it is functional, cell-based. Particulars: Sus scrofa.
For assay [7], the system named is LLC-PK1. Put plainly: Renoprotective activity in pig LLC-PK1 cells assessed as inhibition of cisplatin-induced apoptosis by measuring apoptotic cells at 50 to 100 uM preincubated for 2 hrs followed by cisplatin addition after 24 hrs by annexin-V Alexa Fluor488/propidium iodide staining based cytometric method (reference value: 26.3%). In kind it is functional, Sus scrofa.

Assay [8] has as its system A2780. The experiment in a line: Potentiation of cisplatin-induced cytotoxicity against human A2780 cells up to 100 uM after 24 hrs in presence of cisplatin by Ez-Cytox reagent based assay. In kind it is functional, cell-based.
Assay [9] is filed under the species Sus scrofa. The experiment in a line: Inhibition of cisplatin-induced increase in phosphorylated ERK levels in pig LLC-PK1 cells at 50 to 100 uM pretreated for 2 hrs followed by cisplatin addition after 24 hrs by radioimmunoprecipitation assay. It is filed as cell-based.
For assay [10], the species on record is Sus scrofa. The experiment in a line: Inhibition of cisplatin-induced increase in phosphorylated JNK levels in pig LLC-PK1 cells at 50 to 100 uM pretreated for 2 hrs followed by cisplatin addition after 24 hrs by radioimmunoprecipitation assay. In kind it is cell-based.

Calls of active or inactive are those of the source. The rule behind the calls is not given here.

`CC(=O)O[C@H]1CC[C@]2(C)C3=CC[C@]4(C)[C@@H]([C@@H](CCC=C(C)C)C(=O)O)CC[C@@]4(C)C3=CC[C@H]2C1(C)C`: the outcome with A2780 [1] was inactive. In the assay on LLC-PK1 [2], the inhibition result was “Dose-dependent effect”.

On to `O=c1c(O)c(-c2ccc(O)c(O)c2)oc2cc(O)cc(O)c12`, for which the inhibition entry in the assay with LLC-PK1 [3] was “Active”.

As to `C=C(CC[C@@H](C(=O)O)[C@H]1CC[C@@]2(C)C3=CC[C@H]4C(C)(C)[C@@H](OC(C)=O)CC[C@]4(C)C3=CC[C@]12C)C(C)C`, the results for the “inhibition (INH)” value with LLC-PK1 [4] and in the assay with LLC-PK1 [7] were “<=80%” and 4.3%, respectively. The inhibition entry in the assay listed under Sus scrofa [5], in the assay on LLC-PK1 [6], in the assay listed under Sus scrofa [9] and in the assay listed under Sus scrofa [10] was “Active” throughout. Besides, in the assay on LLC-PK1 [2], the inhibition result was “Dose-dependent effect”. For the same compound, the outcome with A2780 [8] was Active.

For the origin of these results see ChEMBL document CHEMBL4020762, “Protective effect of lanostane triterpenoids from the sclerotia of Poria cocos Wolf against cisplatin-induced apoptosis in LLC-PK1 cells” (2017).
